Measured values from PubChem BioAssay (NCI).
Several values for one entry are separate records, joined by “and”; a condition that tells them apart may be missing. Equal values may be shown once.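 The compound was tested at five concentrations on cells cultured in 96-well plates, with a 48-hour exposure period. GI50 is the concentration that inhibits growth by half. TGI: total growth inhibition.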

Legend:
Test in all cases: NCI anticancer screen, dose series, 48 h
NCI-H23 lung = system: NCI-H23 lung
786-0 renal = system: 786-0 renal
RXF 393 renal = system: RXF 393 renal
LOX IMVI melanoma = system: LOX IMVI melanoma
MALME-3M melanoma = system: MALME-3M melanoma
BT-549 breast = system: BT-549 breast
DU-145 prostate = system: DU-145 prostate
OVCAR-4 ovarian = system: OVCAR-4 ovarian
SNB-75 CNS = system: SNB-75 CNS
SF-539 CNS = system: SF-539 CNS

SMILES	GI50 (NCI-H23 lung)	TGI (NCI-H23 lung)	GI50 (786-0 renal)	TGI (786-0 renal)	GI50 (RXF 393 renal)	TGI (RXF 393 renal)	GI50 (LOX IMVI melanoma)	TGI (LOX IMVI melanoma)	GI50 (MALME-3M melanoma)	TGI (MALME-3M melanoma)	GI50 (BT-549 breast)	TGI (BT-549 breast)	GI50 (DU-145 prostate)	TGI (DU-145 prostate)	GI50 (OVCAR-4 ovarian)	TGI (OVCAR-4 ovarian)	TGI (SNB-75 CNS)	TGI (SF-539 CNS)	GI50 (SF-539 CNS)	GI50 (SNB-75 CNS)
O=C(O)/C=C/c1ccc[c]([Sb](=[O])([OH])[OH])c1	> 100 µM	> 100 µM	> 100 µM	> 100 µM	> 100 µM	> 100 µM	> 100 µM	> 100 µM	> 100 µM	> 100 µM	> 100 µM	> 100 µM	> 100 µM	> 100 µM	> 100 µM	> 100 µM				
COC1=CC(=O)C(Br)=CC1=O		40.8 µM		32.9 µM		32.3 µM		34.3 µM		35.6 µM						32.1 µM	29.1 µM			
C#CCN(N=O)C(=O)NCCCCC(NC(=O)OCc1ccccc1)C(=O)OCc1ccccc1 (configuration not stated)		> 100 µM		> 100 µM		81.7 µM		28 µM		71.6 µM						> 100 µM	> 100 µM	37.4 µM		
COC1CC(C)C(OC)c2cc(O)cc(c2O)NC(=O)/C(C)=C/C=C\C(C)C(OC(N)=O)/C(C)=C\C(C)C1OC (configuration not stated)	0.169 µM and 0.179 µM	5.59 µM and 4.37 µM	4.62 µM	11.5 µM and 24.3 µM	1.33 µM	9.01 µM and 8.63 µM	0.165 µM and 0.255 µM	1.74 µM and 6.91 µM	0.749 µM and 0.503 µM	4.89 µM and 7.39 µM			1.59 µM	22.4 µM and 8.94 µM	2.51 µM	7.87 µM and 10.1 µM	18.2 µM and 3.42 µM	10.2 µM and 8.61 µM	0.271 µM	0.245 µM
COc1cc2c(c(O)c1C)C(=O)CC(c1ccccc1)O2 (configuration not stated)		> 100 µM		> 100 µM				> 10 µM		> 100 µM						> 10 µM	> 100 µM	> 100 µM		
CCC[CH2][Sn]([CH2]CCC)([CH2]CCC)[O]C(=O)C(OC(C)=O)c1ccccc1 (configuration not stated)	0.131 µM	0.262 µM	0.157 µM	0.295 µM	0.155 µM	0.302 µM	0.107 µM	0.23 µM	0.143 µM	0.274 µM					0.103 µM	0.221 µM	0.424 µM	0.306 µM	0.165 µM	0.134 µM
CCN(CC)CCCOc1ccc2ncnc(Nc3ccc(Oc4cccc(C(F)(F)F)c4)c(Cl)c3)c2c1	1.56 µM	3.05 µM	1.54 µM	2.95 µM	1.45 µM	2.97 µM	1.63 µM	3.06 µM	1.57 µM	3.04 µM			1.39 µM	2.74 µM	1.54 µM	2.99 µM	2.86 µM	3.17 µM	1.74 µM	1.49 µM
CCN(CCCl)CCCCCNc1c2ccccc2nc2ccc(OC)cc12		1.55 µM		1.63 µM		2.4 µM		1.09 µM		5.93 µM						3.42 µM	3.02 µM	2.65 µM		
Cn1cnc([N+](=O)[O-])c1Sc1nnnn1C		34.7 µM		32.1 µM				26.6 µM		26.9 µM						30.8 µM	89.6 µM	36.3 µM		
CCOP(=O)(OCC)/C(C#N)=C\c1ccsc1		> 100 µM		> 100 µM		> 100 µM		> 100 µM		> 100 µM						> 100 µM	> 100 µM	> 100 µM		
Cc1ccc(NC(=O)C(=O)C(C(=O)c2ccc3ccccc3c2)C2OC(=O)c3ccccc32)c(C)c1 (configuration not stated)		37.2 µM		19.7 µM		22.5 µM		32.2 µM		22.4 µM						25.6 µM	47.3 µM	19.4 µM		
O=C1NC(=O)C(=Cc2c3ccccc3cc3ccccc23)C(=O)N1		> 100 µM		> 100 µM		> 100 µM		> 100 µM										> 100 µM		
O=C1C=CC(=O)C2C1Cc1ccccc1C2c1ccccc1 (configuration not stated)		> 100 µM		> 100 µM				> 100 µM		> 100 µM						46 µM	> 100 µM	> 100 µM		
O=c1nc(NC(c2ccccc2)(c2ccccc2)c2ccccc2)ccn1CCCl		56 µM		32 µM		30.8 µM		31.8 µM		29.2 µM						53.1 µM	41.8 µM	31.7 µM		
Cc1cc(Br)cc(C)c1NC(=O)C(=O)C(C(=O)c1ccncc1)C1OC(=O)c2ccccc21 (configuration not stated)		> 100 µM		> 100 µM		> 100 µM		> 100 µM		> 100 µM						> 100 µM				
Cc1cc2c(c3nocc13)C(=O)c1ccccc1C2=O		> 100 µM		> 100 µM		> 100 µM		> 100 µM		> 100 µM						> 100 µM	> 100 µM	> 100 µM		
NCCOCn1cc(Cc2cccc(OCc3ccccc3)c2)c(=O)[nH]c1=O		> 100 µM		> 100 µM				> 100 µM								> 100 µM	> 100 µM	> 100 µM		
O=C1OC(c2ccccc2)(c2ccccc2)c2ccc3ccc(F)cc3c21		> 100 µM		> 100 µM		> 100 µM		> 100 µM		> 100 µM						> 100 µM	> 100 µM	> 100 µM		
CCNc1cc2oc(=O)cc(C(F)(F)F)c2cc1C		> 100 µM		> 100 µM		> 100 µM		> 100 µM				> 100 µM		> 100 µM		> 100 µM	> 100 µM	> 100 µM		
Cc1c(N)nc([C@H](CC(N)=O)NC[C@H](N)C(N)=O)nc1C(=O)N[C@H](C(=O)N[C@H](C)[C@@H](O)CC(=O)N[C@H](C(=O)NC(O[C@@H]1O[C@@H](C)[C@@H](N)[C@@H](O)[C@H]1O)C(O)c1nc(-c2nc(C(=O)NCCCCN)cs2)cs1)[C@@H](C)O)[C@@H](O[C@@H]1O[C@@H](CO)[C@@H](O)[C@H](O)[C@@H]1O[C@H]1O[C@H](CO)[C@@H](O)[C@H](OC(N)=O)[C@@H]1O)c1c[nH]cn1 (some centres not stated)		> 50 µM		> 50 µM		> 50 µM		> 50 µM				> 50 µM		> 50 µM		> 50 µM	> 50 µM	> 50 µM		
